Values quoted from earlier work, collected in patent US20090304721A1, “TOXIN […] RECEPTOR ANTIBODIES” (priority 2005, published 2009).

Conditions: compared with vincristine and vinblastine; cited from earlier work

In the case of `COc1cc2cc(c1Cl)N(C)C(=O)C[C@H](OC(=O)[C@H](C)N(C)C(C)=O)[C@]1(C)O[C@H]1[C@H](C)[C@@H]1C[C@@](O)(NC(=O)O1)[C@H](OC)/C=C/C=C(\C)C2` [Maytansine], the “cytotoxicity in vitro relative to vinca alkaloids” value is given as 200 to 1,000 fold.
